Laboratory results taken from patent publication US10208030B2, “GPR119 agonist compounds” (Mankind Pharma Ltd., priority 2016, dated 2019).
Where a name gives a salt, the structure may show the parent alone.

Biological target: T1, hGPR119 (Homo sapiens, UniProt Q8TDV5)
T1 construct: expressed in transfected cells; host or cells: CHO cells (CHO-hGPR119)
T1 sequence (Q8TDV5 1-335): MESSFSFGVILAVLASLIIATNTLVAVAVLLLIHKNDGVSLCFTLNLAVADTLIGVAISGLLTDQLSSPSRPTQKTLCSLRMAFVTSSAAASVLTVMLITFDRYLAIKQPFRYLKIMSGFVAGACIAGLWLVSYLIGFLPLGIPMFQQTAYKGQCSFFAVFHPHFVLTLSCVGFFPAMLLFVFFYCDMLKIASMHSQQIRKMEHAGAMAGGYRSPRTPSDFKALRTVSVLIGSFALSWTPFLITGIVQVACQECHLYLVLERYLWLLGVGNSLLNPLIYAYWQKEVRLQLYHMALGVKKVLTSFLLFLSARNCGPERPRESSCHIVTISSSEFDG
Assay: In vitro cyclic AMP assay (Cisbio HTRF) in CHO-hGPR119 cells
Format: cell-based
Settings: 1 h, cAMP, 1 μM, 60 min, read-out: Induction (% induction at 1 μM)
Description: cAMP measurements were done using Cisbio dynamic 2 HTRF kit according to the manufacturer's protocol. Briefly, CHO-hGPR119 cells were plated at a cell density of 5000 cells/well/5 μl into a white small volume 384 well plate. The final concentrations of IBMX and DMSO used were 1 mM and 0.5% respectively. Cells were treated with various concentrations of the test compound for 60 min at room temperature. Cells were lysed by buffer containing Anti-cAMP antibody and d2-cAMP reagents and incubated for 1 hour at room temperature. HTRF was measured at 337 nm excitation and emission wavelengths of 665 nm and 620 nm on a microplate reader (Flurostar, BMG Labtech). Graphpad prism software was utilized for EC50 determinations.

Compound | activation at 1 µM
CC(Oc1nn2cc(-c3ccc(S(C)(=O)=O)cc3)nc2s1)C1CCN(c2ncc(Cl)cn2)CC1 (centres unmarked) [Compound 1069, 2-(1-(1-(5-chloropyrimidin-2-yl)piperidin-4-yl)ethoxy)-6-(4-(methylsulfonyl)phenyl)imidazo[2,1-b][1,3,4]thiadiazole] | 65%
CC(C)c1cnc(N2CCC(C(C)Oc3nn4cc(-c5ccc(S(C)(=O)=O)cc5)nc4s3)CC2)nc1 (centres unmarked) [Compound 1070, 2-(1-(1-(5-isopropylpyrimidin-2-yl)piperidin-4-yl)ethoxy)-6-(4-(methylsulfonyl)phenyl)imidazo[2,1-b][1,3,4]thiadiazole] | 55%
CC(Oc1nn2cc(-c3ccc(S(C)(=O)=O)cc3)nc2s1)C1CCN(c2nc(C(F)(F)F)no2)CC1 (centres unmarked) [Compound 1073, 2-(1-(1-(3-(trifluoromethyl)-1,2,4-oxadiazol-5-yl)piperidin-4-yl)ethoxy)-6-(4-(methylsulfonyl)phenyl)imidazo[2,1-b][1,3,4]thiadiazole] | 33%
CC(C)c1noc(N2CCC(C(C)Oc3nn4cc(-c5cnc(S(C)(=O)=O)nc5)nc4s3)CC2)n1 (centres unmarked) [Compound 1074, 2-(1-(1-(3-isopropyl-1,2,4-oxadiazol-5-yl)piperidin-4-yl)ethoxy)-6-(2-(methylsulfonyl)pyrimidin-5-yl)imidazo[2,1-b][1,3,4]thiadiazole] | 44%
CC(C)c1noc(N2CCC(C(C)Oc3nn4cc(-c5ccc(Cl)nc5)nc4s3)CC2)n1 (centres unmarked) [Compound 1075, 2-(1-(1-(3-isopropyl-1,2,4-oxadiazol-5-yl)piperidin-4-yl)ethoxy)-6-(6-chloropyridin-3-yl)imidazo[2,1-b][1,3,4]thiadiazole] | 64%
C[C@@H](Oc1nn2cc(-c3ccc(S(C)(=O)=O)cc3)nc2s1)C1CCN(c2nc(C(F)(F)F)no2)CC1 [Compound 1076, 2-((R)-1-(1-(3-(trifluoromethyl)-1,2,4-oxadiazol-5-yl)piperidin-4-yl)ethoxy)-6-(4-(methylsulfonyl)phenyl)imidazo[2,1-b][1,3,4]thiadiazole] | 15%
C[C@H](Oc1nn2cc(-c3ccc(S(C)(=O)=O)cc3)nc2s1)C1CCN(c2nc(C(F)(F)F)no2)CC1 [Compound 1077, 2-((S)-1-(1-(3-(trifluoromethyl)-1,2,4-oxadiazol-5-yl)piperidin-4-yl)ethoxy)-6-(4-(methylsulfonyl)phenyl)imidazo[2,1-b][1,3,4]thiadiazole] | 33%
CC(C)c1noc(N2CCC([C@H](C)Oc3nn4cc(-c5ccc(S(C)(=O)=O)c(F)c5)nc4s3)CC2)n1 [Compound 1078, 2-((S)-1-(1-(3-isopropyl-1,2,4-oxadiazol-5-yl)piperidin-4-yl)ethoxy)-6-(3-fluoro-4-(methylsulfonyl)phenyl)imidazo[2,1-b][1,3,4]thiadiazole] | 54%
CC(C)c1noc(N2CCC(C(C)Oc3nn4cc(-c5cnc(Cl)cn5)nc4s3)CC2)n1 (centres unmarked) [Compound 1079, 2-(1-(1-(3-isopropyl-1,2,4-oxadiazol-5-yl)piperidin-4-yl)ethoxy)-6-(5-chloropyrazin-2-yl)imidazo[2,1-b][1,3,4]thiadiazole] | 87%
CCCc1cnc(N2CCC([C@H](C)Oc3nn4cc(-c5ccncc5F)nc4s3)CC2)nc1 [Compound 1082, 2-((S)-1-(1-(5-propylpyrimidin-2-yl)piperidin-4-yl)ethoxy)-6-(3-fluoropyridin-4-yl)imidazo[2,1-b][1,3,4]thiadiazole] | 80%
C[C@H](Oc1nn2cc(-c3ccc(S(C)(=O)=O)cc3)nc2s1)C1CCN(c2ncc(Cl)cn2)CC1 [Compound 1083, 2-((S)-1-(1-(5-chloropyrimidin-2-yl)piperidin-4-yl)ethoxy)-6-(4-(methylsulfonyl)phenyl)imidazo[2,1-b][1,3,4]thiadiazole] | 77%
CCCc1cnc(N2CCC([C@H](C)Oc3nn4cc(-c5ccc(S(C)(=O)=O)cc5F)nc4s3)CC2)nc1 [Compound 1085, 2-((S)-1-(1-(5-propylpyrimidin-2-yl)piperidin-4-yl)ethoxy)-6-(2-fluoro-4-(methylsulfonyl)phenyl)imidazo[2,1-b][1,3,4]thiadiazole] | 74%
CC(C)c1noc(N2CCC(C(C)Oc3nn4cc(-c5ccncc5C(F)(F)F)nc4s3)CC2)n1 (centres unmarked) [Compound 1092, 2-(1-(1-(3-isopropyl-1,2,4-oxadiazol-5-yl)piperidin-4-yl)ethoxy)-6-(3-(trifluoromethyl)pyridin-4-yl)imidazo[2,1-b][1,3,4]thiadiazole] | 25%
CCc1cnc(N2CCC([C@H](C)Oc3nn4cc(-c5ccnc(OC)c5)nc4s3)CC2)nc1 [Compound 1093, 2-((S)-1-(1-(5-ethylpyrimidin-2-yl)piperidin-4-yl)ethoxy)-6-(2-methoxypyridin-4-yl)imidazo[2,1-b][1,3,4]thiadiazole] | 75%
CCCc1cnc(N2CCC([C@H](C)Oc3nn4cc(-c5ccnc(OC)c5)nc4s3)CC2)nc1 [Compound 1094, 2-((S)-1-(1-(5-propylpyrimidin-2-yl)piperidin-4-yl)ethoxy)-6-(2-methoxypyridin-4-yl)imidazo[2,1-b][1,3,4]thiadiazole] | 68%
COc1cnccc1-c1cn2nc(OC(C)C3CCN(c4nc(C(C)C)no4)CC3)sc2n1 (centres unmarked) [Compound 1095, 2-(1-(1-(3-isopropyl-1,2,4-oxadiazol-5-yl)piperidin-4-yl)ethoxy)-6-(3-methoxypyridin-4-yl)imidazo[2,1-b][1,3,4]thiadiazole] | 8%
C[C@H](Oc1nn2cc(-c3ccc(S(C)(=O)=O)cc3F)nc2s1)C1CCN(c2ncc(C(F)(F)F)cn2)CC1 [Compound 1098, 2-((S)-1-(1-(5-(trifluoromethyl)pyrimidin-2-yl)piperidin-4-yl)ethoxy)-6-(2-fluoro-4-(methylsulfonyl)phenyl)imidazo[2,1-b][1,3,4]thiadiazole] | 68%
COc1cc(S(C)(=O)=O)ccc1-c1cn2nc(O[C@@H](C)C3CCN(c4nc(C(C)C)no4)CC3)sc2n1 [Compound 1103, 2-((S)-1-(1-(3-isopropyl-1,2,4-oxadiazol-5-yl)piperidin-4-yl)ethoxy)-6-(2-methoxy-4-(methylsulfonyl)phenyl)imidazo[2,1-b][1,3,4]thiadiazole] | 9%
Cc1nc(S(C)(=O)=O)ccc1-c1cn2nc(O[C@@H](C)C3CCN(c4nc(C(C)C)no4)CC3)sc2n1 [Compound 1104, 2-((S)-1-(1-(3-isopropyl-1,2,4-oxadiazol-5-yl)piperidin-4-yl)ethoxy)-6-(2-methyl-6-(methylsulfonyl)pyridin-3-yl)imidazo[2,1-b][1,3,4]thiadiazole] | 46%
CC(C)c1noc(N2CCC([C@@H](C)Oc3nn4cc(-c5ccc(-c6nnn[nH]6)cc5F)nc4s3)CC2)n1 [Compound 1105, 2-((R)-1-(1-(3-isopropyl-1,2,4-oxadiazol-5-yl)piperidin-4-yl)ethoxy)-6-(2-fluoro-4-(1H-tetrazol-5-yl)phenyl)imidazo[2,1-b][1,3,4]thiadiazole hydrochloride] | 30%
CCOC(=O)N1CCC(C(C)Oc2nn3cc(-c4ccc(S(C)(=O)=O)cc4F)nc3s2)CC1 (centres unmarked) [Compound 1107, Ethyl 4-(1-(6-(2-fluoro-4-(methylsulfonyl)phenyl)imidazo[2,1-b][1,3,4]thiadiazol-2-yloxy)ethyl)piperidine-1-carboxylate] | 67%
CC(Oc1nn2cc(-c3ccc(S(C)(=O)=O)cc3F)nc2s1)C1CCN(C(=O)OC2(C)CC2)CC1 (centres unmarked) [Compound 1110, 1-methylcyclopropyl 4-(1-(6-(2-fluoro-4-(methylsulfonyl)phenyl)imidazo[2,1-b][1,3,4]thiadiazol-2-yloxy)ethyl)piperidine-1-carboxylate] | 71%
CC(C)c1noc(N2CCC(C(C)Oc3nn4cc(-c5cncs5)nc4s3)CC2)n1 (centres unmarked) [Compound 1111, 2-(1-(1-(3-isopropyl-1,2,4-oxadiazol-5-yl)piperidin-4-yl)ethoxy)-6-(thiazol-5-yl)imidazo[2,1-b][1,3,4]thiadiazole] | 63%
Cc1cc(S(C)(=O)=O)ccc1-c1cn2nc(O[C@@H](C)C3CCN(c4nc(C(C)C)no4)CC3)sc2n1 [Compound 1112, 2-((S)-1-(1-(3-isopropyl-1,2,4-oxadiazol-5-yl)piperidin-4-yl)ethoxy)-6-(2-methyl-4-(methylsulfonyl)phenyl)imidazo[2,1-b][1,3,4]thiadiazole] | 71%
CCOC(=O)N1CCC([C@H](C)Oc2nn3cc(-c4ccc(S(C)(=O)=O)cc4F)nc3s2)CC1 [Compound 1113, ethyl 4-((S)-1-(6-(2-fluoro-4-(methylsulfonyl)phenyl)imidazo[2,1-b][1,3,4]thiadiazol-2-yloxy)ethyl)piperidine-1-carboxylate] | 68%
CC(C)c1noc(C2CCN(c3nc(-c4ccc(S(C)(=O)=O)cc4)ns3)CC2)n1 [Compound 1114, 4-(3-isopropyl-1,2,4-oxadiazol-5-yl)-1-(3-(4-(methylsulfonyl)phenyl)-1,2,4-thiadiazol-5-yl)piperidine] | 4%

Same assay, conditions: cAMP, class symbols, legend not given

Compound | EC50
CC(Oc1nn2cc(-c3ccc(S(C)(=O)=O)cc3)nc2s1)C1CCN(c2ncc(Cl)cn2)CC1 (centres unmarked) [Compound 1069, 2-(1-(1-(5-chloropyrimidin-2-yl)piperidin-4-yl)ethoxy)-6-(4-(methylsulfonyl)phenyl)imidazo[2,1-b][1,3,4]thiadiazole] | A+
CCCc1cnc(N2CCC([C@H](C)Oc3nn4cc(-c5ccc(S(C)(=O)=O)cc5F)nc4s3)CC2)nc1 [Compound 1085, 2-((S)-1-(1-(5-propylpyrimidin-2-yl)piperidin-4-yl)ethoxy)-6-(2-fluoro-4-(methylsulfonyl)phenyl)imidazo[2,1-b][1,3,4]thiadiazole] | A++
CCOC(=O)N1CCC([C@H](C)Oc2nn3cc(-c4ccc(S(C)(=O)=O)cc4F)nc3s2)CC1 [Compound 1113, ethyl 4-((S)-1-(6-(2-fluoro-4-(methylsulfonyl)phenyl)imidazo[2,1-b][1,3,4]thiadiazol-2-yloxy)ethyl)piperidine-1-carboxylate] | A+
